In patent US12152048B2, “Nitroxoline prodrug and use thereof” (Jiangsu Yahong Meditech Co., Ltd., priority 2018, dated 2024):
Converted amounts (≈) assume the structure as drawn.

Assays:
[1] = Stability in rat plasma
Source text: (§1) Experimental instruments: thermostatic shaker (SHA-B, Guohua Electric Appliance Co., Ltd.); centrifuge (5810R, Eppendorf); mass spectrometry (AP4000, Applied Biosystems, USA); liquid chromatography (LC-30AD, Shimadzu); sample injector (CTC Analytics AG System, CTC).
(§2) Test animals: plasma of human (batch number: BRH1343165), rat (batch number: RAT336728), mouse (batch number: MSE280000), dog (batch number: BGL99137) and monkey (batch number: PH-Monkey-20180821) are purchased from Shanghai Sixin Biological Technology Co., Ltd.
(§3) Experimental process: the compound of the present invention was dissolved in an organic solvent to obtain a 1 mM working solution. 3 μL of the working solution were added to 597 μL of pre-incubated human or rat plasma and mixed well. 50 μL of the solution were immediately taken out as the 0 minute sample. The remaining sample was incubated at 37° C., and 50 μL of sample were taken out at 15, 30, 60 and 120 minutes respectively. All the samples taken out were immediately processed to precipitate protein, and centrifuged to obtain a supermate for the determination of the compound concentration by LC/MS/MS.

[2] = Stability in rat liver microsome; conditions: 2 μM, 37° C., 30 minutes
Protocol: Experimental instruments: thermostatic shaker (SHA-B, Guohua Electric Appliance Co., Ltd.); centrifuge (5810R, Eppendorf); mass spectrometry (API4000, Applied Biosystems, USA); liquid chromatography (LC-30AD, Shimadzu); sample injector (CTC Analytics AG System, CTC).
Experimental process: 25 μg/mL alamethicin (Aldrich), 5 mM magnesium chloride and 0.5 mg/mL microsome (XENOTECH) were added to 100 mM phosphate buffer to obtain a coenzyme-free reaction solution. A portion of the coenzyme-free reaction solution was added with 1 mM reductive nicotinamide adenine dinucleotide phosphate (Aldrich) and 5 mM uridine diphosphate glucuronic acid (Aldrich) to obtain a coenzyme-containing reaction solution. The working solution of the compound of the present invention was added to the two reaction solutions so that the final concentration of the compound was 2 μM. Immediately after mixing well, 50 μL of the solution were taken out as the 0 minute sample, and 50 μL of the remaining sample were taken out after incubating at 37° C. for 30 minutes. All the samples taken out were immediately processed to precipitate protein, and centrifuged to obtain a supernate for the determination of the compound concentration by LC/MS/MS.

[3] = Stability in dog liver microsome; conditions: 2 μM, 37° C., 30 minutes
[4] = Pharmacokinetics assay in dog (nitroxoline concentration in plasma after single intravenous or oral administration); format: in vivo, beagle dog; conditions: for absorption in beagle dogs compared with nitroxoline: conclusion in words; for AUC0-inf: nitroxoline in beagle dog plasma
Source text: Nitroxoline is mainly metabolized by the phase II metabolism in liver with a fast metabolism rate, so it has a short half-life in the body. The present invention modified its structure and 13 compounds of formula (I) were obtained through chemical synthesis. The change of nitroxoline concentration in dog plasma after a single intravenous or oral administration of nitroxoline and the compound of formula (I) was studied to evaluate the pharmacokinetic behavior of nitroxoline and the compound of formula (I) in dog body.
Male beagle dog (Beijing Marshall Biotechnology Co., Ltd., Certificate No.: SCXK (BJ) 2016-0001, Qualified number: 11400600001728), 3 dogs per group, weight 10 to 13 kg, 20 to 22 months old. The dogs were fasted overnight before the administration with free access to water, and fed 4 hours after the administration. The test compound was added to an EP tube, and then added with DMSO, solutol and sterilized water for injection (the volume ratio of the three was 1:2:17, v:v:v). The EP tube was subjected to ultrasound for 20 minutes to make the test compound dissolve well (compound concentration: 0.005 mmol/mL). The dose for intravenous administration was 0.01 mmol/kg, and the dose for oral administration was 0.1 mmol/kg. 0.3 ml of whole blood was collected from jugular vein before the administration (0 hour) and 0.0833, 0.25, 0.5, 1, 2, 4, 6, 8, 10 and 12 hours after the administration (sampling points can be adjusted according to the specific situation) respectively. The blood sample was placed in a centrifuge tube containing EDTA-K2 anticoagulant (Aldrich), and the centrifuge tube was left to stand in ice. The blood sample was centrifuged for 10 minutes at 1530 g within 0.5 hour to obtain all clean plasma. The plasma was placed in another clean centrifuge tube, and stored in a refrigerator at −20° C. for later use.
Solution for standard curve was formulated. 1000 μL of internal standard working solution (containing a solution of verapamil (5 ng/mL, Aldrich), glibenclamide (50 ng/mL, Aldrich) and diclofenac (50 ng/mL, Aldrich) in acetonitrile) was added to 10 μL of the solution for standard curve and sample, and the mixture was shaked by vortex for 5 minutes. The mixture was centrifuged for 10 minutes at 4° C., 3700 rpm. 60 μL of the supernatant were placed in an injection tube, and mixed with 120 μL of water. 10 μL of the solution were injected into the liquid chromatography-mass spectrometry system for determination. The pharmacokinetic parameters were calculated by the WinNonlin V 6.2 non-compartmental model.

[5] = Stability in monkey plasma; format: in vitro ADME
Source text: as §1, §2, §3

[6] = Stability in human plasma
Source text: as §1, §2, §3

[7] = Stability in dog plasma; format: in vitro ADME
Source text: as §1, §2, §3

[8] = Stability in human liver microsome; conditions: 2 μM, 37° C., 30 minutes
[9] = Stability in mouse liver microsome; format: in vitro ADME; conditions: 2 μM, 37° C., 30 minutes
[10] = Determination of water solubility in phosphate buffer; format: physicochemical; conditions: thermodynamic from solid, 24 hours
In short: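 Thermodynamic solubility: compound concentration measured by LC/MS/MS in the vacuum filtrate after 24 h shaking at room temperature of 2 mg powder in 500 μL phosphate buffer at pH 1.2, 4.5, 6.8 or 7.4.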

[11] = Stability in mouse plasma; format: in vitro ADME
Source text: as §1, §2, §3

[12] = oral administration 0.1 mmol/kg
[13] = aqueous buffer, phosphate buffer pH 4.5, room temperature
[14] = aqueous buffer, phosphate buffer pH 6.8, room temperature
[15] = aqueous buffer, phosphate buffer pH 7.4, room temperature
[16] = simulated gastric fluid, phosphate buffer pH 1.2, room temperature
[17] = intravenous administration 0.01 mmol/kg

| Compound | Percentage of the compound remaining in plasma ([1]; 0 minute) | Percentage of the compound remaining in plasma ([1]; 37° C., 15 minutes) | Percentage of the compound remaining in plasma ([1]; 37° C., 30 minutes) | Percentage of the compound remaining in plasma ([1]; 37° C., 60 minutes) | Percentage of the compound remaining in plasma ([1]; 37° C., 120 minutes) | AUC0-inf [4, 12] | Percentage of the compound remaining in plasma ([5]; 0 minute) | Percentage of the compound remaining in plasma ([5]; 37° C., 15 minutes) | Percentage of the compound remaining in plasma ([5]; 37° C., 30 minutes) | Percentage of the compound remaining in plasma ([5]; 37° C., 60 minutes) | Percentage of the compound remaining in plasma ([5]; 37° C., 120 minutes) | Percentage of the compound remaining in plasma ([6]; 0 minute) | Percentage of the compound remaining in plasma ([6]; 37° C., 15 minutes) | Percentage of the compound remaining in plasma ([6]; 37° C., 30 minutes) | Percentage of the compound remaining in plasma ([6]; 37° C., 60 minutes) | Percentage of the compound remaining in plasma ([6]; 37° C., 120 minutes) | Percentage of the compound remaining in plasma ([7]; 0 minute) | Percentage of the compound remaining in plasma ([7]; 37° C., 15 minutes) | Percentage of the compound remaining in plasma ([7]; 37° C., 30 minutes) | Percentage of the compound remaining in plasma ([7]; 37° C., 60 minutes) | other results |
| --- | --- | --- | --- | --- | --- | --- | --- | --- | --- | --- | --- | --- | --- | --- | --- | --- | --- | --- | --- | --- | --- |
| CCC(CC)C(=O)OCOc1ccc([N+](=O)[O-])c2cccnc12 [Compound 5, (5-nitroquinolin-8-yloxy)methyl 2-ethylbutanoate] | 100.0% | 2.2% | 0.0% | 0.0% | 0.0% | 1760 ng*hmL^−1 | 100.0% | 0.0% | 0.0% | 0.0% | 0.0% | 100.0% | 68.5% | 39.5% | 11.9% | 1.6% | 100.0% | 75.0% | 50.6% | 27.1% | Percentage of the compound remaining in rat liver microsome ([2]; with coenzyme): 0.16%; Percentage of the compound remaining in rat liver microsome ([2]; without coenzyme): 1.10%; Percentage of the compound remaining in dog liver microsome ([3]; with coenzyme): 0.19%; Percentage of the compound remaining in dog liver microsome ([3]; without coenzyme): 4.06%; absorption in beagle dogs compared with nitroxoline [4]: well absorbed; Percentage of the compound remaining in plasma ([7]; 37° C., 120 minutes): 12.0%; Percentage of the compound remaining in human liver microsome ([8]; with coenzyme): 0.15%; Percentage of the compound remaining in human liver microsome ([8]; without coenzyme): 0.88%; Percentage of the compound remaining in mouse liver microsome ([9]; with coenzyme): 0.44%; Percentage of the compound remaining in mouse liver microsome ([9]; without coenzyme): 0.34%; solubility at 24 h [10, 13]: 13.1 µg/mL (≈ 41.1 µM); solubility at 24 h [10, 14]: 11.1 µg/mL (≈ 34.9 µM); solubility at 24 h [10, 15]: 13 µg/mL (≈ 40.9 µM); solubility at 24 h [10, 16]: 204 µg/mL (≈ 640 µM) |
| O=[N+]([O-])c1ccc(O)c2ncccc12 [Nitroxoline] | 100.0% | 93.9% | 94.1% | 95.3% | 88.4% | 4780 ng*hmL^−1 | 100.0% | 101.2% | 104.0% | 101.8% | 100.4% | 100.0% | 99.3% | 98.3% | 100.6% | 91.6% | 100.0% | 100.8% | 101.1% | 95.3% | Percentage of the compound remaining in plasma ([11]; 0 minute): 100.0%; Percentage of the compound remaining in plasma ([11]; 37° C., 15 minutes): 95.8%; Percentage of the compound remaining in plasma ([11]; 37° C., 30 minutes): 97.4%; Percentage of the compound remaining in plasma ([11]; 37° C., 60 minutes): 97.4%; Percentage of the compound remaining in plasma ([11]; 37° C., 120 minutes): 93.0%; AUC0-inf [4, 17]: 3300 ng*hmL^−1; Percentage of the compound remaining in plasma ([7]; 37° C., 120 minutes): 98.4%; solubility at 24 h [10, 15]: 352 µg/mL (≈ 1850 µM) |
| CCC(CC)C(=O)OC(C)Oc1ccc([N+](=O)[O-])c2cccnc12 (stereo not shown) [Compound 51, 1-(5-nitroquinolin-8-yloxy)ethyl 2-ethylbutanoate] | 100.0% | 70.2% | 67.8% | 48.0% | 35.3% | 2474 ng*hmL^−1 | 100.0% | 96.4% | 87.0% | 78.1% | 69.0% | 100.0% | 97.2% | 98.0% | 94.1% | 84.6% | 100.0% | 103.7% | 93.7% | 89.1% | Percentage of the compound remaining in rat liver microsome ([2]; with coenzyme): 0.08%; Percentage of the compound remaining in rat liver microsome ([2]; without coenzyme): 2.92%; Percentage of the compound remaining in dog liver microsome ([3]; with coenzyme): 0.07%; Percentage of the compound remaining in dog liver microsome ([3]; without coenzyme): 0.28%; absorption in beagle dogs compared with nitroxoline [4]: well absorbed; AUC0-inf [4, 17]: 1153 ng*hmL^−1; Percentage of the compound remaining in plasma ([7]; 37° C., 120 minutes): 93.3%; Percentage of the compound remaining in human liver microsome ([8]; with coenzyme): 0.06%; Percentage of the compound remaining in human liver microsome ([8]; without coenzyme): 0.25%; Percentage of the compound remaining in mouse liver microsome ([9]; with coenzyme): 0.02%; Percentage of the compound remaining in mouse liver microsome ([9]; without coenzyme): 0.09%; solubility at 24 h [10, 13]: 7.07 µg/mL (≈ 21.3 µM); solubility at 24 h [10, 14]: 5.69 µg/mL (≈ 17.1 µM); solubility at 24 h [10, 15]: 6.62 µg/mL (≈ 19.9 µM); solubility at 24 h [10, 16]: 91.4 µg/mL (≈ 275 µM) |
